Assay results reported in patent US8796264B2, “2-piperazin-1-yl-4H-1,3-benzothiazin-4-one derivatives and their use for the treatment of mammalian infections” (Ecole Polytechnique Federale de Lausanne (EPFL), priority 2010, dated 2014).
Converted amounts (≈) assume the structure as drawn.

Key:
[1] = test system: M. tuberculosis strain H37Rv; assay: In vivo efficacy in the chronic murine TB model; design: species or system mice; conditions: INH 25 mg/kg
M. tuberculosis H37Rv = assay: In vitro inhibitory activity, resazurin reduction assay (MIC99); assay type: cell-based, Mycobacterium tuberculosis; conditions: strain not stated
[2] = test system: M. tuberculosis strain H37Rv; assay: In vivo efficacy in the acute murine TB model; design: species or system mice
HepG2 cells = assay: Cytotoxicity TC50, resazurin reduction assay; assay type: cell-based, human; conditions: 72 h incubation
Procedure: (§1) The selectivity index (SI) of a compound provides a good indication of the potential tolerability of a drug candidate. […] The TC50 of PBTZ169 and BTZ043 were established using two human cell lines, the hepatocyte line HepG2 and the pneumocyte line A549, using the resazurin reduction assay after incubation with varying amounts of the compounds for 72 h. […] The respective MICs were 1 and 2 ng/ml for PBTZ169 and BTZ043. […] In clinical terms, PBTZ169 should be safer and better tolerated than BTZ043.

A549 cells = assay: Cytotoxicity TC50, resazurin reduction assay; assay type: cell-based, human; conditions: 72 h incubation
Procedure: as §1

[3] = Intrinsic clearance in liver microsomes; conditions: 1 μg/mL with 0.1 mg microsomes, HPLC
Procedure: Next, PBTZ169 and BTZ043 were incubated at a concentration of 1 μg/mL with 0.1 mg of human or mouse liver microsomes (Invitrogen) in order to measure their intrinsic clearance. The relative amounts of the original compound remaining over time were determined by HPLC.

[4] = test system: NfnB-overproducing mutant MN39; assay: Susceptibility of the NfnB-overproducing mutant MN39; assay type: cell-based, Mycobacterium smegmatis; conditions: M. smegmatis NfnB-overproducing mutant
Source text: A second resistance mechanism to BTZ043 has been described in Mycobacterium smegmatis due to overproduction of the nitroreductase NfnB (Manina, G., et al. Mol Microbiol 2010. epub 2010/07/14).

C[C@H]1COC2(CCN(c3nc(=O)c4cc(C(F)(F)F)cc([N+](=O)[O-])c4s3)CC2)O1 [BTZ043, 2-[(2S)-2-methyl-1,4-dioxa-8-azaspiro[4.5]dec-8-yl]-8-nitro-6-(trifluoromethyl)-4H-1,3-benzothia-zin-4-one, reference compound]
Efficacy in reducing CFU compared to INH [1]: slightly inferior to INH | MIC used for the selectivity index (M. tuberculosis H37Rv): 0.002 µg/mL | Log of CFU lungs ([2]; 4 weeks treatment, intragastric 5 times a week, compounds and BTZ043 50 mg/kg, isoniazid 25 mg/kg): 4.78 | Medium longevity (days) M ± SEM ([2]; compounds and BTZ043 50 mg/kg, isoniazid 25 mg/kg): Alive at sacrifice | Result of treatment, macroscopic condition of the lungs ([2]; treatment for prescribed time): marked improvement | TC50 against HepG2 cells (HepG2 cells): 6.3 µg/mL (≈ 14.6 µM) | TC50 against A549 cells (A549 cells): 16.3 µg/mL (≈ 37.8 µM) | Intrinsic Clearance (Clint), Human liver microsomes [3]: 16.2 μL/min/mg of protein | Intrinsic Clearance (Clint), Mouse liver microsomes [3]: 10.3 μL/min/mg of protein | Increase in the MIC for MN39 relative to the wild type parental strain [4]: 6 fold
